Several values for one entry are separate records, joined by “and”; a condition that tells them apart may be missing. Identical values can stand only once. Toxic doses and inconclusive results are not listed. No stated cut-off is given here; in the data, active means T/C of 150% or more; inactive means T/C below 125%.
Tested on: L1210 leukemia ip in BDF1 mice, survival T/C
Assay: NCI In Vivo Anticancer Drug Screen. Data for tumor model L1210 Leukemia (intraperitoneal) in B6D2F1 (BDF1) mice
Details: endpoint: mean survival time, higher = longer survival
Method in brief: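 Antitumor effect is assessed in tumor-bearing animals. Survival in the compound arm is compared with a vehicle-dosed control arm and expressed as their quotient.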

[1] = dose: 100.0 mg/kg/injection, schedule: Q01DX001 (ip), vehicle: saline
[2] = dose: 100.0 mg/kg/injection, schedule: Q01DX009 (ip), vehicle: Klucel (hydroxypropylcellulose) (HPC)
[3] = dose: 200.0 mg/kg/injection, schedule: Q01DX009 (ip), vehicle: Klucel (hydroxypropylcellulose) (HPC)
[4] = dose: 400.0 mg/kg/injection, schedule: Q01DX009 (ip), vehicle: Klucel (hydroxypropylcellulose) (HPC)
[5] = dose: 25.0 mg/kg/injection, schedule: Q01DX009 (ip), vehicle: water
[6] = dose: 50.0 mg/kg/injection, schedule: Q01DX009 (ip), vehicle: water
[7] = dose: 100.0 mg/kg/injection, schedule: Q04DX003 (ip), vehicle: saline
[8] = dose: 100.0 mg/kg/injection, schedule: Q01DX001 (ip), vehicle: carboxymethylcellulose (CMC)
[9] = dose: 200.0 mg/kg/injection, schedule: Q01DX001 (ip), vehicle: carboxymethylcellulose (CMC)
[10] = dose: 400.0 mg/kg/injection, schedule: Q01DX001 (ip), vehicle: carboxymethylcellulose (CMC)

Measured: T/C

CCOC(=O)C1C(CCCCO)CC(=O)CC1(C)C(N)=O (stereo unspecified)
inactive: [1] 97 % of control | dose: 200.0 mg/kg/injection, schedule: Q01DX001 (ip), vehicle: saline 91 % of control | dose: 400.0 mg/kg/injection, schedule: Q01DX001 (ip), vehicle: saline 95 % of control

C=CCN(CC=C)C(=O)Nc1ccc(C(=O)N/N=C/c2cccc(OC)c2OC)cc1
inactive: [2] 103 % of control and 88 % of control | dose: 100.0 mg/kg/injection, schedule: Q04DX002 (ip), vehicle: Klucel (hydroxypropylcellulose) (HPC) 95 % of control and 105 % of control | [3] 100 % of control and 88 % of control | dose: 200.0 mg/kg/injection, schedule: Q04DX002 (ip), vehicle: Klucel (hydroxypropylcellulose) (HPC) 94 % of control and 101 % of control | [4] 95 % of control | dose: 400.0 mg/kg/injection, schedule: Q04DX002 (ip), vehicle: Klucel (hydroxypropylcellulose) (HPC) 97 % of control and 105 % of control

CC(=O)N(CC(=O)OCc1ccccc1)C(C)=O
inactive: dose: 100.0 mg/kg/injection, schedule: Q01DX009 (ip), vehicle: saline 110 % of control | dose: 200.0 mg/kg/injection, schedule: Q01DX009 (ip), vehicle: saline 103 % of control | dose: 400.0 mg/kg/injection, schedule: Q01DX009 (ip), vehicle: saline 105 % of control

CS(=O)c1ncc2cnccn12 (stereo unspecified)
inactive: [5] 100 % of control | dose: 25.0 mg/kg/injection, schedule: Q04DX003 (ip), vehicle: saline 107 % of control | [6] 99 % of control | dose: 50.0 mg/kg/injection, schedule: Q04DX003 (ip), vehicle: saline 113 % of control | dose: 100.0 mg/kg/injection, schedule: Q01DX009 (ip), vehicle: water 102 % of control and 103 % of control | [7] 107 % of control | dose: 100.0 mg/kg/injection, schedule: Q04DX003 (ip), vehicle: water 110 % of control | dose: 200.0 mg/kg/injection, schedule: Q01DX009 (ip), vehicle: water 98 % of control

N#CC1CC2([N+](=O)[O-])c3ccccc3C1c1ccccc12 (stereo unspecified)
inactive: [2] 96 % of control | dose: 100.0 mg/kg/injection, schedule: Q04DX003 (ip), vehicle: Klucel (hydroxypropylcellulose) (HPC) 105 % of control | [7] 105 % of control | [3] 102 % of control | dose: 200.0 mg/kg/injection, schedule: Q04DX003 (ip), vehicle: Klucel (hydroxypropylcellulose) (HPC) 108 % of control | dose: 200.0 mg/kg/injection, schedule: Q04DX003 (ip), vehicle: saline 108 % of control | [4] 94 % of control | dose: 400.0 mg/kg/injection, schedule: Q04DX003 (ip), vehicle: Klucel (hydroxypropylcellulose) (HPC) 102 % of control | dose: 400.0 mg/kg/injection, schedule: Q04DX003 (ip), vehicle: saline 102 % of control

O=CNC1CCCCC1c1ccc(C2CCCCC2NC=O)cc1 (stereo unspecified)
inactive: [1] 97 % of control

CC1OC(O[C@@H]2C=C3CC[C@@H]4[C@H](CC[C@]5(C)[C@@H](c6ccc(=O)oc6)CC[C@]45O)[C@@]3(C)CC2)C(O)C(O)C1O (stereo partly specified)
inactive: dose: 10.0 mg/kg/injection, schedule: Q01DX001 (ip), vehicle: saline 101 % of control

CCNC(=S)Nc1cccc(C)c1
inactive: dose: 25.0 mg/kg/injection, schedule: Q04DX002 (ip), vehicle: gum acacia 102 % of control | dose: 50.0 mg/kg/injection, schedule: Q04DX002 (ip), vehicle: gum acacia 97 % of control | dose: 100.0 mg/kg/injection, schedule: Q04DX002 (ip), vehicle: gum acacia 97 % of control | dose: 200.0 mg/kg/injection, schedule: Q04DX002 (ip), vehicle: gum acacia 89 % of control

CCOC(=O)CCC(NC(=O)c1ccc(NCc2nnc3nc(N)nc(N)c3n2)cc1)C(=O)OCC (stereo unspecified)
inactive: dose: 25.0 mg/kg/injection, schedule: Q01DX001 (ip), vehicle: saline with Tween-80 100 % of control | dose: 50.0 mg/kg/injection, schedule: Q01DX001 (ip), vehicle: saline with Tween-80 95 % of control | dose: 100.0 mg/kg/injection, schedule: Q01DX001 (ip), vehicle: saline with Tween-80 107 % of control

CC(C)=NOC(=O)Nc1ccc2c(c1)OCO2
inactive: dose: 100.0 mg/kg/injection, schedule: Q04DX003 (ip), vehicle: saline with Tween-80 109 % of control | dose: 200.0 mg/kg/injection, schedule: Q04DX003 (ip), vehicle: saline with Tween-80 97 % of control | dose: 400.0 mg/kg/injection, schedule: Q04DX003 (ip), vehicle: saline with Tween-80 101 % of control

O=C(O)c1c(O)c2cc([N+](=O)[O-])ccc2oc1=O
inactive: [8] 89 % of control | dose: 100.0 mg/kg/injection, schedule: Q04DX002 (ip), vehicle: saline with Tween-80 95 % of control and 111 % of control | [9] 103 % of control | dose: 200.0 mg/kg/injection, schedule: Q04DX002 (ip), vehicle: saline with Tween-80 114 % of control | [10] 100 % of control | dose: 400.0 mg/kg/injection, schedule: Q04DX002 (ip), vehicle: saline with Tween-80 115 % of control

CS(=O)(=O)OCc1c(O)c2c(c(O)c1COS(C)(=O)=O)C(=O)C=CC2=O
inactive: [5] 94 % of control | [6] 97 % of control

CC(=O)[O][Sn]([CH2]C1CCCCC1)([CH2]C1CCCCC1)[CH2]C1CCCCC1
inactive: dose: 6.25 mg/kg/injection, schedule: Q04DX002 (ip), vehicle: saline with Tween-80 96 % of control | dose: 12.5 mg/kg/injection, schedule: Q04DX002 (ip), vehicle: saline with Tween-80 96 % of control

Cc1cccc(/C(=C/c2ccc([N+](=O)[O-])cc2)C(=O)Nc2ccc(S(=O)(=O)F)cc2)c1
inactive: dose: 100.0 mg/kg/injection, schedule: Q01DX009 (ip), vehicle: saline with Tween-80 96 % of control | dose: 200.0 mg/kg/injection, schedule: Q01DX009 (ip), vehicle: saline with Tween-80 97 % of control | dose: 400.0 mg/kg/injection, schedule: Q01DX009 (ip), vehicle: saline with Tween-80 96 % of control

C/C(=N/OC(=O)N(C)C)c1ccc(Cl)cc1Cl
inactive: dose: 100.0 mg/kg/injection, schedule: Q01DX001 (ip), vehicle: other 107 % of control

O=P(c1ccccc1)(c1ccccc1)C(Nc1ccc(Cl)cc1)c1ccco1 (stereo unspecified)
inactive: dose: 400.0 mg/kg/injection, schedule: Q01DX009 (ip), vehicle: gum acacia 92 % of control

O=C(c1ccccc1)c1ccc(C2CCCCC2)cc1
inactive: dose: 50.0 mg/kg/injection, schedule: Q01DX001 (ip), vehicle: carboxymethylcellulose (CMC) 98 % of control | [8] 104 % of control | [9] 98 % of control | [10] 100 % of control

N#Cc1cc2ccccc2nc1N
inactive: [8] 98 % of control | [9] 93 % of control | [10] 98 % of control

CCOc1ccccc1/C=N\NC(=O)c1ccco1
inactive: [8] 106 % of control | [9] 95 % of control | [10] 104 % of control

CCSCCCCO
inactive: dose: 75.0 mg/kg/injection, schedule: Q01DX001 (ip), vehicle: saline 101 % of control | dose: 75.0 mg/kg/injection, schedule: Q01DX009 (ip), vehicle: saline 102 % of control | dose: 150.0 mg/kg/injection, schedule: Q01DX001 (ip), vehicle: saline 101 % of control | dose: 150.0 mg/kg/injection, schedule: Q01DX009 (ip), vehicle: saline 100 % of control | dose: 300.0 mg/kg/injection, schedule: Q01DX001 (ip), vehicle: saline 97 % of control
